Measurements reported in the NIST ThermoML archive (doi:10.1016/j.jct.2013.08.002).

Test: relative permittivity at various frequencies (dimensionless)
Conditions: 101 kPa, Liquid, Frequency=0.01 MHz, Coaxial cylinder capacitor

NCCNCCO [N-(2-aminoethyl)ethanolamine]
Conditions	relative permittivity
293.2 K	21.51
299.2 K	19.87
304.2 K	18.18
308.2 K	17.09
314.2 K	15.84
320.2 K	14.64
323.2 K	13.97
330.2 K	12.89
333.2 K	12.3
339.2 K	11.37
343.2 K	10.77
348.2 K	10.19
